Experiment [1] has as its target T1, Human Glucocorticoid Receptor (Homo sapiens, UniProt P04150).
T1 construct: endogenous in cells; host or cells: cytosol from IM-9 cell line
T1 sequence (P04150 1-777): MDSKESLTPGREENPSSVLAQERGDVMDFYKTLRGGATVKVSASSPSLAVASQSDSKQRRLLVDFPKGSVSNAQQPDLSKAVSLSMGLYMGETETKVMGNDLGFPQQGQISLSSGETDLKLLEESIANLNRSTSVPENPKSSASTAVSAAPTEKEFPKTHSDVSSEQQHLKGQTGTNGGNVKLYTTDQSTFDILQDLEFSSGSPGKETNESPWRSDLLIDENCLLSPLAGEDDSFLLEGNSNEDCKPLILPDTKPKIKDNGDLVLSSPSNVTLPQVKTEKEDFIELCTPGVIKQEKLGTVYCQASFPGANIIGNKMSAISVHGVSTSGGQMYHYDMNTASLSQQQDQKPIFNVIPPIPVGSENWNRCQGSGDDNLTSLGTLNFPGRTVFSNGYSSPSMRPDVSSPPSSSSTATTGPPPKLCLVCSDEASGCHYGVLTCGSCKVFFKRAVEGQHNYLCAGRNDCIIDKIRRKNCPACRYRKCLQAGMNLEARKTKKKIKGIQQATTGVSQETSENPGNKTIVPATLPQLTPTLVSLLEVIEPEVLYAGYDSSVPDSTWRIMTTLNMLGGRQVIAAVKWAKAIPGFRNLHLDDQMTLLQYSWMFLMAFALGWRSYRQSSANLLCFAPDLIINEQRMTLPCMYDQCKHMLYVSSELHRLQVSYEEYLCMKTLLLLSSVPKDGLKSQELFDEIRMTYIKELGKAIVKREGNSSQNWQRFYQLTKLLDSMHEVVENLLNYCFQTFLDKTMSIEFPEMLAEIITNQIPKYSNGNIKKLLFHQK
Briefly: Competition Binding in IM-9 Human Glucocorticoid Receptor (GR IM-9). To be noted: cytosol from IM-9 cell line, 1.5 nM [3H]-Dexamethasone, 4° C. for 6 hours. A digest of the protocol: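 Radioligand competition using 100 μg IM-9 cell cytosol and 1.5 nM [3H]-dexamethasone, incubated 6 h at 4° C in TES/molybdate buffer, pH 7.4. Filtration on PEI-treated GF/B filters, scintillation counting; nonspecific binding defined with 10 μM triamcinolone.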

In experiment [2] the target is T2, human androgen receptor (Homo sapiens, UniProt P10275, T878A).
T2 construct: endogenously expressed human androgen receptor using the LnCap prostate cancer cell line; endogenous in cells; host or cells: LNCaP prostate cancer cell line (whole cells)
T2 sequence (P10275 1-920 T878A): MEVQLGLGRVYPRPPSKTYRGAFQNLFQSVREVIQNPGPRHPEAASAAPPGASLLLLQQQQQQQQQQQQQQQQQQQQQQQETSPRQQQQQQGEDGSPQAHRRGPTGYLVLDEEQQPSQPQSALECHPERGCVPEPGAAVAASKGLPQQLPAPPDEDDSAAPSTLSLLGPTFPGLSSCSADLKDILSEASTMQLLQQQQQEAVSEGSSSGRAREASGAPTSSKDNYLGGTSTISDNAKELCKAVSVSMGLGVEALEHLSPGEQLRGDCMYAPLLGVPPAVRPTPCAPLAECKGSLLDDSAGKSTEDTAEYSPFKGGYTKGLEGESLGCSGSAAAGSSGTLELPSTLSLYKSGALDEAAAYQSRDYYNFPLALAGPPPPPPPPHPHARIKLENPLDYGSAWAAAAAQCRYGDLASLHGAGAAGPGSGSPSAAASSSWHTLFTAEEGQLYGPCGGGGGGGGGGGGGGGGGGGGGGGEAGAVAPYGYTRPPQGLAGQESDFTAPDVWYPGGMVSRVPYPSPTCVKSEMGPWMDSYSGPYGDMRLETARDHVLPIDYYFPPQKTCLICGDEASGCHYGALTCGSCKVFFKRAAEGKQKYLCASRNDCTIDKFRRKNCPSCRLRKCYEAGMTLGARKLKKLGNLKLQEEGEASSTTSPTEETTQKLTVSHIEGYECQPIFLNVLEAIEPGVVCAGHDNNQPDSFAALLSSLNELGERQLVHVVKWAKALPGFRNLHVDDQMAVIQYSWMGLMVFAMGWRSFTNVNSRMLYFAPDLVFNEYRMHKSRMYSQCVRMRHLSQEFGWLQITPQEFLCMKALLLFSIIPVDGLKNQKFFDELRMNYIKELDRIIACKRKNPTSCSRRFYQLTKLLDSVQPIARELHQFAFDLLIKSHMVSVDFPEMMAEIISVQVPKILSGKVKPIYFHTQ
The experiment in a line: Human Androgen Receptor Binding (radioligand binding, LnCap prostate cancer cell line). To be noted: LnCap cells, displacement of [^3H]-methyltrienolone, 2 hours at 37° C.; read-out: AR LNCaP. The protocol:
Human Androgen Receptor Binding
Radioligand binding studies were carried out on endogenously expressed human androgen receptor using the LnCap prostate cancer cell line. The test is based on measuring radioactively labelled AR ligand [^3H]-methyltrienolone that gets displaced by increasing concentrations of test compound. The test is performed in 96-well plates (Falcon, #353072). Positive and negative controls are also required in each analyzed plate to evaluate the total and non-specific binding binding of the radioligand to the receptor. Cells (60000 per well) were incubated for 24 hours before executing the experiment at 37° C. and in a 5% CO2 atmosphere. Medium was replaced by assay buffer (RPMI-640 (ATCC #30-2001) supplemented with 0.1% bovine serum albumin (Sigma #8806-56) and Triamcinolone acetonide (Sigma #T6501)). The compounds at the desired concentrations and [^3H]methyltrienolone (Perkin Elmer #NET590) were added to the wells.
In order to obtain a dose-response curve and calculate the potency of inhibition (expressed as IC50) for AR, a series of 1:10 dilutions in test in 1× buffer from 10 μM to 0.1 nM for each compound was carried out.
Cells were incubated for 2 hours at 37° C. in a 5% CO2 atmosphere and then washed twice with ice-cold HBSS. Then cells were lysed with solubilization buffer (Hank's Balanced Salt Solution (HBSS, Sigma #H6648), 0.5% Sodium dodecyl sulfate 0.5% (SDS, Sigma #L7390-500G, Lote: 078K0102) and 20% Glycerol (Sigma Aldrich, #G2025) for 30 minutes at RT. 75 μL aliquots were taken from each well and transferred to a 96-well flexiplate (Perkin Elmer #1450-401) and mixed with 100 μL of scintillation cocktail (Optiphase supermix, PerkinElmer, #1200-439). Plates are shaken for 60 minutes and radioactivity was measured in a beta scintillation counter (Microbeta Trilux, Perkin Elmer).

Some results are limits rather than exact numbers.

As to `CC(=O)C1=C(C)NC(C)=C(C(=O)OCC2CCCCC2)C1c1csc2ncccc12` (stereo not shown) [Example C34, Cyclohexylmethyl 5-acetyl-2,6-dimethyl-4-(thieno[2,3-b]pyridin-3-yl)-1,4-dihydropyridine-3-carboxylate], the IC50 in experiment [1] was below 100 nM; in experiment [2] it was at least 1000 nM.

As for `CC(=O)C1=C(C)NC(C)=C(C(=O)OC2CCCC2)C1c1csc2ncccc12` (stereo not shown) [Example C37, Cyclopentyl 5-acetyl-2,6-dimethyl-4-(thieno[2,3-b]pyridin-3-yl)-1,4-dihydropyridine-3-carboxylate], the IC50 in experiment [1] and in experiment [2] was below 100 nM each time.

Consider `CC(=O)C1=C(C)NC(C)=C(C(=O)OCc2ccc(F)cc2)C1c1csc2ncccc12` (stereo not shown) [Example C47, 4-Fluorobenzyl 5-acetyl-2,6-dimethyl-4-(thieno[2,3-b]pyridin-3-yl)-1,4-dihydropyridine-3-carboxylate], for which the IC50 in experiment [1] was below 100 nM; in experiment [2], 100 to 1000 nM.

Take `CC(=O)C1=C(C)NC(C(F)(F)F)=C(C(=O)OCc2ccccc2)C1c1csc2ncccc12` (stereo not shown) [Example C56, Benzyl 5-acetyl-6-methyl-4-(thieno[2,3-b]pyridin-3-yl)-2-(trifluoromethyl)-1,4-dihydropyridine-3-carboxylate]: the IC50 is below 100 nM in experiment [1] and 100 to 1000 nM in experiment [2].

Take `CC(=O)C1=C(C)NC(C)=C(C(=O)OC2CCC(C)(C)CC2)C1c1csc2ncccc12` (stereo not shown) [Example C76, 4,4-dimethylcyclohexyl 5-acetyl-2,6-dimethyl-4-(thieno[2,3-b]pyridin-3-yl)-1,4-dihydropyridine-3-carboxylate]: the IC50 in experiment [1] was below 100 nM; in experiment [2], at least 1000 nM.

Take `CC(=O)C1=C(C)NC(C)=C(C(=O)OC2CCOCC2)C1c1csc2ncccc12` (stereo not shown) [Example C78, Tetrahydro-2H-pyran-4-yl 5-acetyl-2,6-dimethyl-4-(thieno[2,3-b]pyridin-3-yl)-1,4-dihydropyridine-3-carboxylate]: the IC50 is 100 to 1000 nM in experiment [1] and at least 1000 nM in experiment [2].

Take `COC(=O)C1=C(C#N)NC(C2CC2)=C(C(=O)OC)C1c1csc2c(C#N)cccc12` (stereo not shown) [Example C112, Dimethyl 2-cyano-4-(7-cyanobenzo[b]thiophen-3-yl)-6-cyclopropyl-1,4-dihydropyridine-3,5-dicarboxylate]: the IC50 is below 100 nM in experiment [1] and 100 to 1000 nM in experiment [2].

On to `COC(=O)C1=C(C)NC(C#N)=C(C(=O)OC)C1c1csc2c(C#N)cccc12` (stereo not shown) [Example C113, Dimethyl 2-cyano-4-(7-cyanobenzo[b]thiophen-3-yl)-6-methyl-1,4-dihydropyridine-3,5-dicarboxylate], for which the IC50 is below 100 nM in experiment [1] and 100 to 1000 nM in experiment [2].

As for `COC(=O)C1=C(C)NC(CO)=C(C(=O)OC)C1c1csc2c(C#N)cccc12` (stereo not shown) [Example C120, Dimethyl 4-(7-cyanobenzo[b]thiophen-3-yl)-2-(hydroxymethyl)-6-methyl-1,4-dihydropyridine-3,5-dicarboxylate], the IC50 is below 100 nM in experiment [1] and 100 to 1000 nM in experiment [2].

Consider `CC(=O)C1=C(C(=O)OCC2CC2)C(c2csc3c(C#N)cccc23)C(C(C)=O)=C(C)N1` (stereo not shown) [Example C123, Cyclopropylmethyl 2,5-diacetyl-4-(7-cyanobenzo[b]thiophen-3-yl)-6-methyl-1,4-dihydropyridine-3-carboxylate], for which the IC50 in experiment [1] and in experiment [2] was below 100 nM each time.

Consider `COC(=O)C1=C(C)NC(N)=C(C(=O)OCc2ccc(F)cc2)C1c1csc2c(C#N)cccc12` (stereo not shown) [Example D22, 3-(4-fluorobenzyl) 5-methyl 2-amino-4-(7-cyanobenzo[b]thiophen-3-yl)-6-methyl-1,4-dihydropyridine-3,5-dicarboxylate], for which the IC50 is below 100 nM in experiment [1] and at least 1000 nM in experiment [2].

With `COC(=O)C1=C(C2CC2)NC(N)=C(C(=O)OCc2ccc(F)cc2)C1c1csc2c(C#N)cccc12` (stereo not shown) [Example D23, 3-(4-fluorobenzyl) 5-methyl 2-amino-4-(7-cyanobenzo[b]thiophen-3-yl)-6-cyclopropyl-1,4-dihydropyridine-3,5-dicarboxylate], the results for the IC50 in experiment [1] and in experiment [2] were below 100 nM and 100 to 1000 nM, respectively.

With `CC1=C(C#N)C(c2csc3c(C#N)cccc23)C(C(=O)OCc2ccc(F)cc2)=C(N)N1` (stereo not shown) [Example D25, 4-Fluorobenzyl 2-amino-5-cyano-4-(7-cyanobenzo[b]thiophen-3-yl)-6-methyl-1,4-dihydropyridine-3-carboxylate], the IC50 in experiment [1] is below 100 nM; in experiment [2], at least 1000 nM.

`N#CC1=C(N)NC(C2CC2)=C(C(=O)OCC2CC2)C1c1csc2c(C#N)cccc12` (stereo not shown) [Example D26, Cyclopropylmethyl 6-amino-5-cyano-4-(7-cyanobenzo[b]thiophen-3-yl)-2-cyclopropyl-1,4-dihydropyridine-3-carboxylate]: the IC50 in experiment [1] and in experiment [2] was 100 to 1000 nM each time.

In the case of `CC(=O)C1=C(C)NC(N)=C(C(=O)OC2CCCCC2)C1c1csc2c(C#N)cccc12` (stereo not shown) [Example D29, Cyclohexyl 5-acetyl-2-amino-4-(7-cyanobenzo[b]thiophen-3-yl)-6-methyl-1,4-dihydropyridine-3-carboxylate], the IC50 is below 100 nM in experiment [1] and 100 to 1000 nM in experiment [2].

As for `COC(=O)C1=C(C)NC(N)=C(C(=O)OCC2CCC2)C1c1csc2c(C#N)cccc12` (stereo not shown) [Example D33, 3-(Cyclobutylmethyl) 5-methyl 2-amino-4-(7-cyanobenzo[b]thiophen-3-yl)-6-methyl-1,4-dihydropyridine-3,5-dicarboxylate], the IC50 is below 100 nM in experiment [1] and 100 to 1000 nM in experiment [2].

Take `COC(=O)C1=C(C)NC(N)=C(C(=O)OCC2CC(F)(F)C2)C1c1csc2c(C#N)cccc12` (stereo not shown) [Example D34, 3-((3,3-Difluorocyclobutyl)methyl) 5-methyl 2-amino-4-(7-cyanobenzo[b]thiophen-3-yl)-6-methyl-1,4-dihydropyridine-3,5-dicarboxylate]: the results for the IC50 in experiment [1] and in experiment [2] were below 100 nM and 100 to 1000 nM, respectively.

For the origin of these results see US11453660B2, “Androgen receptor and glucocorticoid receptor modulators” (ONCOSTELLAE, S.L., priority 2017, dated 2022).
